Measurements reported in patent US5210193A, “Piperazine derivatives” (American Cyanamid Company, priority 1990, dated 1993).
In brackets after ≈: the same amount, converted by molar mass.

Tests used:
Test in all cases: in vitro antibacterial MIC, agar plate dilution
Type in all cases: cell-based
[1] = test system: Enterobacter cloacae MOR 84-30; details: Enterobacter cloacae, MOR8430, 18 h, 35° C., read-out: MIC
Summary of the method: (§1)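 Minimal inhibitory concentrations came from agar plate dilution in Mueller-Hinton medium. Each organism was delivered at roughly 10^4 CFU by Steers replicator. Plates were read for visible growth after 18 hours at 35° C, values in mcg/ml.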

[2] = test system: Escherichia coli VGH 84-19; details: Escherichia coli, VGH8419, 18 h, 35° C., read-out: MIC
Summary of the method: as §1

[3] = test system: Morganella morganii MOR 84-45; details: Morganella morganii, MOR8445, 18 h, 35° C., read-out: MIC
Summary of the method: as §1

[4] = test system: Morganella morganii VHG 84-12; details: Morganella morganii, VHG8412, 18 h, Morganella morganii VHG 84-12 (VGH 84-12 for Example 131), 35° C., read-out: MIC
Summary of the method: as §1

[5] = test system: Providencia stuarti CMC 83-3; details: Providencia, CMC833, 18 h, 35° C., read-out: MIC
Summary of the method: as §1

[6] = test system: Pseudomonas aeruginosa CMC 83-20; details: Pseudomonas aeruginosa, CMC8320, 18 h, 35° C., read-out: MIC
Summary of the method: as §1

[7] = test system: Serratia marcescens K 84-18; details: Serratia marcescens, K8418, 18 h, 35° C., read-out: MIC
Summary of the method: as §1

[8] = test system: Staphylococcus aureus Smith; details: Staphylococcus aureus, 18 h, 35° C., read-out: MIC
Summary of the method: as §1

[9] = test system: Streptococcus faecalis CMC 83-120; details: Enterococcus faecalis, CMC83120, 18 h, 35° C., read-out: MIC
Summary of the method: as §1

Compound | MIC [1] [µg/mL] | MIC [2] [µg/mL] | MIC [3] [µg/mL] | MIC [4] [µg/mL] | MIC [5] [µg/mL] | MIC [6] [µg/mL] | MIC [7] [µg/mL] | MIC [8] [µg/mL] | MIC [9] [µg/mL]
CCn1cc(C(=O)O)c(=O)c2cc(F)c(N3CCN(C)C(c4ccn(C)n4)C3)cc21 (stereo not drawn) [Example 109, 1-Ethyl-6-fluoro-1,4-dihydro-7-[4-methyl-3-(1-methyl-1H-pyrazol-3-yl) -1-piperazinyl]-4-oxo-3-quinolinecarboxylic acid] | > 16 | > 16 | > 16 | > 16 | > 16 | > 16 | 32 (≈ 77.4 µM) | 0.25 (≈ 0.605 µM) | > 16
CN1CCN(c2cc3c(cc2F)c(=O)c(C(=O)O)cn3C2CC2)CC1C1CC1 (stereo not drawn) [Example 125, 1-Cyclopropyl-7-(3-cyclopropyl-4-methyl-1-piperazinyl) -6-fluoro-1,4-dihydro-4-oxo-3-quinolinecarboxylic acid] | 2 (≈ 5.19 µM) | 0.25 (≈ 0.649 µM) | 0.5 (≈ 1.3 µM) | 1 (≈ 2.59 µM) | > 16 | 16 (≈ 41.5 µM) | 0.5 (≈ 1.3 µM) | 0.12 (≈ 0.311 µM) | 4 (≈ 10.4 µM)

The next lines start with the values.

MIC [1] [µg/mL] | MIC [2] [µg/mL] | MIC [3] [µg/mL] | MIC [4] [µg/mL] | MIC [5] [µg/mL] | MIC [6] [µg/mL] | MIC [7] [µg/mL] | MIC [8] [µg/mL] | MIC [9] [µg/mL] | Compound
4 (≈ 10.1 µM) | 0.25 (≈ 0.629 µM) | 0.25 (≈ 0.629 µM) | 4 (≈ 10.1 µM) | > 16 | 16 (≈ 40.3 µM) | 0.25 (≈ 0.629 µM) | 0.12 (≈ 0.302 µM) | 5 (≈ 12.6 µM) | O=C(O)c1cn(C2CC2)c2cc(N3CCNC(c4cc[nH]n4)C3)c(F)cc2c1=O (stereo not drawn) [Example 121, 1-Cyclopropyl-6-fluoro-1,4-dihydro-4-oxo-7-[3-(1H-pyrazol-3-yl)-1-piperazinyl]-3-quinolinecarboxylic acid]
16 (≈ 40.4 µM) | 1 (≈ 2.52 µM) | 1 (≈ 2.52 µM) | 8 (≈ 20.2 µM) | > 16 | > 16 | 1 (≈ 2.52 µM) | 0.12 (≈ 0.303 µM) | 8 (≈ 20.2 µM) | CCn1cc(C(=O)O)c(=O)c2cc(F)c(N3CCNC(c4cccnc4)C3)cc21 (stereo not drawn) [Example 122]
1 (≈ 2.52 µM) | 0.06 (≈ 0.151 µM) | 0.12 (≈ 0.302 µM) | 0.25 (≈ 0.629 µM) | 8 (≈ 20.1 µM) | 4 (≈ 10.1 µM) | 0.25 (≈ 0.629 µM) | 0.03 (≈ 0.0755 µM) | 1 (≈ 2.52 µM) | O=C(O)c1cn(C2CC2)c2cc(N3CCNC(c4ccoc4)C3)c(F)cc2c1=O (stereo not drawn) [Example 92]
